IC50 data for 28 compounds are collected here from patent US20160287589A1, “SUBSTITUTED-IMIDAZOPYRIDAZINES” (BAYER PHARMA AKTIENGESELLSCHAFT, priority 2013, published 2016).

For experiment [1], the target named is T1, MKNK1 (Homo sapiens, UniProt Q9BUB5, T385D).
T1 construct: GST (N); purchased Carna Biosciences 02-145; host or cells: insect cells (baculovirus expression system)
The experiment can be described thus: MKNK1 kinase assay (MKNK1 TR-FRET assay). Conditions: 10 μM ATP, 15 min preincubation. The class given is biochemical. (Time-resolved FRET reads energy transfer from a long-lived donor to a nearby acceptor.)

Experiment [2] concerns the target T1, MKNK1. The experiment can be described thus: MKNK1 kinase high ATP assay (TR-FRET-based). Conditions: 2 mM ATP, 15 min preincubation. The class given is biochemical. In short, it runs like this:
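GST-tagged full-length human MKNK1 (aa 1-424, T344D) from insect cells, preincubated with compound 15 min at 22 °C. Reaction 30 min at 22 °C with 2 mM ATP and 0.06 μM biotinylated peptide in HEPES pH 7.5, Mg2+, DTT. Phosphopeptide detected by TR-FRET (665/622 ratio) with anti-pS6 (pSer236) antibody; normalised to no-inhibitor and no-enzyme controls.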

One may read the IC50 as the concentration at which inhibition is half-maximal. Read a high IC50 as weaker potency.

T1 sequence (Q9BUB5 1-424 isoform Q9BUB5-2 T344D): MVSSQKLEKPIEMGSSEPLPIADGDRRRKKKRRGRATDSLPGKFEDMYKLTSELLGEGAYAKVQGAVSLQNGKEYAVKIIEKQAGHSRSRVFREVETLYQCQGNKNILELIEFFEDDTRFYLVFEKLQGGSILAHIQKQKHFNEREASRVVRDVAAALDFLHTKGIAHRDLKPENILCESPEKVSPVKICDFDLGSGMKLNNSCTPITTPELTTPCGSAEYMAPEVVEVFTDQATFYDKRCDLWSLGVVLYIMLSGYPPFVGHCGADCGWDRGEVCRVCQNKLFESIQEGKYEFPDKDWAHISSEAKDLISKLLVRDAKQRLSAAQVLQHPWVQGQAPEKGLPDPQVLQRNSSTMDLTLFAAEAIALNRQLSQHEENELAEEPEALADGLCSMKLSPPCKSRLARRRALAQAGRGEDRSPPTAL

On to `C[C@@H]1CN(c2nccc3oc(-c4cnc5ccc(OC[C@@H]6CCC(=O)N6)nn45)cc23)CCO1` [III-125, (5S)-5-{[(3-{4-[(2R)-2-methylmorpholin-4-yl]furo[3,2-c]pyridin-2-yl}imidazo[1,2-b]pyridazin-6-yl)oxy]methyl}pyrrolidin-2-one], for which the IC50 at MKNK1 [1] (Table 1c) was determined as 7.4 nM; against MKNK1 [2] (Table 2c) it was 7.1 nM.
As for `CC1(C)CN(c2nccc3oc(-c4cnc5ccc(OCC(F)(F)F)nn45)cc23)CCN1` [III-126, 3-[4-(3,3-dimethylpiperazin-1-yl)furo[3,2-c]pyridin-2-yl]-6-(2,2,2-trifluoroethoxy)imidazo [1,2-b]pyridazine], the values for the IC50 against MKNK1 [1] (Table 1c) and on MKNK1 [2] (Table 2c) were 5.3 nM and 2.6 nM, respectively.
In the same order, the values of `C[C@H](N)COc1ccc2ncc(-c3cc4c(N5CCOC(C)(C)C5)nccc4o3)n2n1` [III-128, (2S)-1-({3-[4-(2,2-dimethylmorpholin-4-yl)furo[3,2-c]pyridin-2-yl]imidazo[1,2-b]pyridazin-6-yl}oxy)propan-2-amine] are 12.8 nM and 11.8 nM.
In the same order, the values of `CC1(C)CN(c2nccc3oc(-c4cnc5ccc(O[C@H]6C[C@H](N)C6)nn45)cc23)CCO1` [III-129, trans-3-({3-[4-(2,2-dimethylmorpholin-4-yl)furo[3,2-c]pyridin-2-yl]imidazo[1,2-b]pyridazin-6-yl}oxy)cyclobutanamine] are 16.8 nM and 14.1 nM.
`COc1ccc2ncc(-c3cc4c(N5CCNC(C)(C)C5)nccc4o3)n2n1` [III-130, 3-[4-(3,3-dimethylpiperazin-1-yl)furo[3,2-c]pyridin-2-yl]-6-methoxy-imidazo[1,2-b]pyridazine]: the figures for the IC50 at MKNK1 [1] (Table 1c) and against MKNK1 [2] (Table 2c) were 5.3 nM and 1.5 nM, respectively.
For `CC1(C)CN(c2nccc3oc(-c4cnc5ccc(OCCCS(C)(=O)=O)nn45)cc23)CCN1` [III-131, 3-[4-(3,3-dimethylpiperazin-1-yl)furo[3,2-c]pyridin-2-yl]-6-[3-(methylsulfonyl)propoxy] imidazo[1,2-b]pyridazine] the same measures were 11.9 nM and 7 nM.
In the same order, the values of `CC1(C)CN(c2nccc3oc(-c4cnc5ccc(OC[C@@H]6CCC(=O)N6)nn45)cc23)CCO1` [III-132, (5S)-5-[({3-[4-(2,2-dimethylmorpholin-4-yl)furo[3,2-c]pyridin-2-yl]imidazo[1,2-b]pyridazin-6-yl}oxy)methyl]pyrrolidin-2-one] are 6.8 nM and 2.5 nM.
In the same order, the values of `COc1ccc2ncc(-c3cc4c(N5CCN[C@@H](C)C5)nccc4o3)n2n1` [III-133, 6-methoxy-3-{4-[(3S)-3-methylpiperazin-1-yl]furo[3,2-c]pyridin-2-yl}imidazo[1,2-b]pyridazine] are 2.7 nM and 13.1 nM.
In the case of `CC1(C)CN(c2nccc3oc(-c4cnc5ccc(OC[C@@H]6CCC(=O)N6)nn45)cc23)CCN1` [III-134, (5S)-5-[({3-[4-(3,3-dimethylpiperazin-1-yl)furo[3,2-c]pyridin-2-yl]imidazo[1,2-b]pyridazin-6-yl}oxy)methyl]pyrrolidin-2-one], the values for the IC50 against MKNK1 [1] (Table 1c) and against MKNK1 [2] (Table 2c) were 2 nM and 1 nM, respectively.
`CC1(C)CN(c2nccc3oc(-c4cnc5ccc(OCCCS(C)(=O)=O)nn45)cc23)CCO1` [III-135, 3-[4-(2,2-dimethylmorpholin-4-yl)furo[3,2-c]pyridin-2-yl]-6-[3-(methylsulfonyl)propoxy] imidazo[1,2-b]pyridazine]: the IC50 against MKNK1 [1] (Table 1c) worked out at 30.1 nM; on MKNK1 [2] (Table 2c), 12.9 nM.
On to `COC[C@@H]1CCCN1c1nccc2oc(-c3cnc4ccc(O[C@H](C)CN)nn34)cc12` [III-136, (2R)-2-[(3-{4-[(2S)-2-(methoxymethyl)pyrrolidin-1-yl]furo[3,2-c]pyridin-2-yl}imidazo[1,2-b]pyridazin-6-yl)oxy]propan-1-amine], for which the half-maximal inhibitory concentration (IC50) against MKNK1 [1] (Table 1c) amounted to 52.5 nM; at MKNK1 [2] (Table 2c), 122 nM.
As to `CCN(CCOC)c1nccc2oc(-c3cnc4ccc(OCCC[S@@](C)(=O)=NC#N)nn34)cc12` [III-137, [{3-[(3-{4-[ethyl(2-methoxyethyl)ami-no]furo[3,2-c]pyridin-2-yl}imidazo[1,2-b]pyridazin-6-yl)oxy]propyl}(methyl)oxido-λ^6-sulfanylidene]cyanamide], the figures for the IC50 against MKNK1 [1] (Table 1c) and on MKNK1 [2] (Table 2c) were 2.7 nM and 0.6 nM, respectively.
In the same order, the values of `CCN(CCOC)c1nccc2oc(-c3cnc4ccc(OC[C@@H]5CCCN5)nn34)cc12` [III-139, N-ethyl-N-(2-methoxyethyl)-2-{6-[(2S)-pyrrolidin-2-ylmeth-oxy]imidazo[1,2-b]pyridazin-3-yl}furo[3,2-c]pyridin-4-amine] are 3 nM and 1.7 nM.
As to `CC1(C)CN(c2nccc3oc(-c4cnc5ccc(OC[C@H]6CCC(=O)N6)nn45)cc23)CCN1` [III-141, (5R)-5-[({3-[4-(3,3-dimethylpiperazin-1-yl)furo[3,2-c]pyridin-2-yl]imidazo[1,2-b]pyridazin-6-yl}oxy)methyl]pyrrolidin-2-one], the IC50 against MKNK1 [1] (Table 1c) is 3.3 nM; at MKNK1 [2] (Table 2c), 1.4 nM.
In the same order, the values of `CC1(C)CN(c2nccc3oc(-c4cnc5ccc(OC[C@H]6CCC(=O)N6)nn45)cc23)CCO1` [III-142, (5R)-5-[({3-[4-(2,2-dimethylmorpholin-4-yl)furo[3,2-c]pyridin-2-yl]imidazo[1,2-b]pyridazin-6-yl}oxy)methyl]pyrrolidin-2-one] are 1.6 nM and 0.5 nM.
Consider `C[C@H]1CN(c2nccc3oc(-c4cnc5ccc(OCCCS(C)(=O)=O)nn45)cc23)CCN1` [III-143, 3-{4-[(3S)-3-methylpiperazin-1-yl]furo[3,2-c]pyridin-2-yl}-6-[3-(methylsulfonyl)propoxy] imidazo[1,2-b]pyridazine], for which the IC50 against MKNK1 [1] (Table 1c) was 3.7 nM; at MKNK1 [2] (Table 2c), 10 nM.
In the same order, the values of `COc1ccc2ncc(-c3cc4c(N5CCN[C@H](C)C5)nccc4o3)n2n1` [III-144, 6-methoxy-3-{4-[(3R)-3-methylpiperazin-1-yl]furo[3,2-c]pyridin-2-yl}imidazo[1,2-b]pyridazine] are 4.6 nM and 6.7 nM.
`C[C@H]1CN(c2nccc3oc(-c4cnc5ccc(OCC(F)(F)F)nn45)cc23)CCN1` [III-145, 3-{4-[(3S)-3-methylpiperazin-1-yl]furo[3,2-c]pyridin-2-yl}-6-(2,2,2-trifluoroethox-y)imidazo[1,2-b]pyridazine]: the IC50 at MKNK1 [1] (Table 1c) amounted to 9.7 nM; against MKNK1 [2] (Table 2c), 24 nM.
For `COc1ccc2ncc(-c3cc4c(N5CCOC(C)(C)C5)nccc4o3)n2n1` [III-146, 3-[4-(2,2-dimethylmorpholin-4-yl)furo[3,2-c]pyridin-2-yl]-6-methoxy-imidazo[1,2-b]pyridazine] the same measures were 27 nM and 8.7 nM.
Take `CC(=O)N1CCC[C@H]1CCOc1ccc2ncc(-c3cc4cnccc4o3)n2n1` [IV-1, 1-[(2S)-2-(2-{[3-(Furo[3,2-c]pyridin-2-yl)imidazo[1,2-b]pyridazin-6-yl]oxy}ethyl)pyrrolidin-1-yl]ethanone]: the IC50 at MKNK1 [1] (Table 1d) came to 5 nM; against MKNK1 [2] (Table 2d) it was 12 nM.
In the case of `COc1nccc2oc(-c3cnc4ccc(OCCC5CCC(=O)N5)nn34)cc12` (centres unmarked) [IV-2, 5-(2-{[3-(4-Methoxyfuro[3,2-c]pyridin-2-yl)imidazo[1,2-b]pyridazin-6-yl]oxy}-ethyl)pyrrolidin-2-one], the IC50 was 11 nM against MKNK1 [1] (Table 1d) and 26 nM against MKNK1 [2] (Table 2d).
For `COc1nccc2oc(-c3cnc4ccc(OC[C@@H]5CCC(=O)N5)nn34)cc12` [IV-3, (5S)-5-({[3-(4-Methoxyfuro[3,2-c]pyridin-2-yl)imidazo[1,2-b]pyridazin-6-yl]-oxy}methyl)pyrrolidin-2-one], the IC50 was 10 nM against MKNK1 [1] (Table 1d) and 28 nM on MKNK1 [2] (Table 2d).
For `CC(C)Oc1nccc2oc(-c3cnc4ccc(OC[C@H]5CCC(=O)N5)nn34)cc12` [IV-4, (5R)-5-[({3-[4-(Propan-2-yloxy)furo[3,2-c]pyridin-2-yl]imidazo[1,2-b]pyridazin-6-yl}oxy)methyl]pyrrolidin-2-one] the same measures were 2 nM and 4 nM.
In the same order, the values of `CC(C)(C)COc1nccc2oc(-c3cnc4ccc(OC[C@H]5CCC(=O)N5)nn34)cc12` [IV-5, (5R)-5-[({3-[4-(2,2-Dimethylpropoxy)furo[3,2-c]pyridin-2-yl]imidazo[1,2-b]-pyridazin-6-yl}oxy)methyl]pyrrolidin-2-one] are 2 nM and 4 nM.
For `COc1nccc2oc(-c3cnc4ccc(OC[C@H]5CCC(=O)N5)nn34)cc12` [IV-6, (5R)-5-({[3-(4-Methoxyfuro[3,2-c]pyridin-2-yl)imidazo[1,2-b]pyridazin-6-yl]-oxy}methyl)pyrrolidin-2-one] the same measures were 4 nM and 8 nM.
As for `CC(C)(C)C(=O)N1CCC[C@H]1CCOc1ccc2ncc(-c3cc4cnccc4o3)n2n1` [IV-7, 1-[(2S)-2-(2-{[3-(Furo[3,2-c]pyridin-2-yl)imidazo[1,2-b]pyridazin-6-yl]-oxy}ethyl)pyrrolidin-1-yl]-2,2-dimethylpropan-1-one], the IC50 against MKNK1 [1] (Table 1d) is 1 nM; at MKNK1 [2] (Table 2d) it was 4 nM.
`COc1nccc2oc(-c3cnc4ccc(OC[C@H]5CN(C(=O)C6CC6)CCO5)nn34)cc12` [IV-8, Cyclopropyl[(2R)-2-({[3-(4-methoxyfuro[3,2-c]pyridin-2-yl)imidazo[1,2-b]-pyridazin-6-yl]oxy}methyl)morpholin-4-yl]methanone]: the IC50 on MKNK1 [1] (Table 1d) is 4 nM; against MKNK1 [2] (Table 2d) it was 10 nM.
Regarding `COc1nccc2oc(-c3cnc4ccc(OCC5CCCC(=O)N5)nn34)cc12` (centres unmarked) [IV-9, 6-({[3-(4-Methoxyfuro[3,2-c]pyridin-2-yl)imidazo[1,2-b]pyridazin-6-yl]oxy}-methyl)piperidin-2-one], the IC50 at MKNK1 [1] (Table 1d) amounted to 3 nM; against MKNK1 [2] (Table 2d), 9 nM.
